Entries after “also recorded” stand apart in the source; their conditions may differ. Where two headings read alike, the source gives them in different places.
How the values were obtained:
range of ion channels = assay: Ion channel selectivity panel, whole-cell manual patch clamp; assay type: cell-based; settings: at 1.9 μM
[1] = Standard elevated plus maze; settings: male, C57/BL6, mouse, in vivo, 3 mg/kg
C57/BL6 mice = assay: Standard elevated plus maze; settings: 3 mg/kg oral, 60 min prior
C57BL/6 (CSD) mice = assay: Chronic social defeat and fear learning and memory; assay type: in vivo, mouse; settings: 1 mg/kg oral
CD-1 mice = assay: Forced swim test
μ (MOP) (h) = μ (MOP) (h) (Homo sapiens, UniProt P35372); assay: biochemical
NK1 (h) = target: T1, NK1 (h) (Homo sapiens, UniProt P25103); assay type: binding; settings: 1.0E-06 M
T1 construct: (endogenous); host or cells: U-373MG cells

[2] = target: T2, choline transporter (CHT1) (h) (Homo sapiens, UniProt Q9GZV3); assay type: binding; settings: 1.0E-06 M
T2 construct: host or cells: CHO cells
T2 sequence (Q9GZV3 1-580): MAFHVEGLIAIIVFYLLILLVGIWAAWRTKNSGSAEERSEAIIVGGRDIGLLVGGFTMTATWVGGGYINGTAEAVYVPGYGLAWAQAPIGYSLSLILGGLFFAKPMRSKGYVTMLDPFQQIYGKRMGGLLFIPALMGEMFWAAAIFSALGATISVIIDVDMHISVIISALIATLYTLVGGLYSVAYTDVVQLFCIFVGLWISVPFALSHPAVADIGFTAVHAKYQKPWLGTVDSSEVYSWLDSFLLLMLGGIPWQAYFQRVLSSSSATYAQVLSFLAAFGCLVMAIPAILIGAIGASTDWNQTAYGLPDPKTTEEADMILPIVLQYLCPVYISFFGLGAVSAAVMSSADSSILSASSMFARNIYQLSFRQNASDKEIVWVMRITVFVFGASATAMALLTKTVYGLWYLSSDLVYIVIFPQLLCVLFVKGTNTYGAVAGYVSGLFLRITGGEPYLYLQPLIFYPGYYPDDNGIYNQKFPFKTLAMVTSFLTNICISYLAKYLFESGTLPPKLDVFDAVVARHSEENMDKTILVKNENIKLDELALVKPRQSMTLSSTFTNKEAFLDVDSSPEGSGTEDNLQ

β2 (h) = β2 (h) (Homo sapiens, UniProt P07550); assay type: binding; settings: 1.0E-06 M
A1 (h) = target: T3, A1 (h) (Homo sapiens, UniProt P30542); assay type: binding
T3 sequence (P30542 1-326): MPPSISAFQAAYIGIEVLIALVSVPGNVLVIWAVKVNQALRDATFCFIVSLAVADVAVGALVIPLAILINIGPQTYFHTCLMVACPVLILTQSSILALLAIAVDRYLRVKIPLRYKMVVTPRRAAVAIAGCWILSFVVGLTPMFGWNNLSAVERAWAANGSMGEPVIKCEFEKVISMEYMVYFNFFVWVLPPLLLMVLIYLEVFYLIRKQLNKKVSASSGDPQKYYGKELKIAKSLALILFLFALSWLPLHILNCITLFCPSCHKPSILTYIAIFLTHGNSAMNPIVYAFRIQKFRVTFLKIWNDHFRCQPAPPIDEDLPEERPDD

BLT1 (LTB4) (h) = target: T4, BLT1 (LTB4) (h) (Homo sapiens, UniProt Q15722); assay type: binding; settings: 1.0E-06 M
T4 construct: host or cells: CHO cells

[3] = target: carbonic anhydrase II (h) (Homo sapiens, UniProt P00918); assay: biochemical; settings: 1.0E-06 M
5-HT7 (h) = 5-HT7 (h) (Homo sapiens, UniProt P34969); assay: biochemical
MC3 (h) = target: T5, MC3 (h) (Homo sapiens, UniProt P41968); assay type: binding
T5 construct: host or cells: CHO cells

TR (TH) = assay type: binding, rat; settings: 1.0E-06 M
TNF-α (h) = assay type: binding, human; settings: 1.0E-06 M
UT (h) = target: T6, UT (h) (Homo sapiens, UniProt Q9UKP6); assay type: binding
T6 construct: host or cells: CHO cells
T6 sequence (Q9UKP6 1-389): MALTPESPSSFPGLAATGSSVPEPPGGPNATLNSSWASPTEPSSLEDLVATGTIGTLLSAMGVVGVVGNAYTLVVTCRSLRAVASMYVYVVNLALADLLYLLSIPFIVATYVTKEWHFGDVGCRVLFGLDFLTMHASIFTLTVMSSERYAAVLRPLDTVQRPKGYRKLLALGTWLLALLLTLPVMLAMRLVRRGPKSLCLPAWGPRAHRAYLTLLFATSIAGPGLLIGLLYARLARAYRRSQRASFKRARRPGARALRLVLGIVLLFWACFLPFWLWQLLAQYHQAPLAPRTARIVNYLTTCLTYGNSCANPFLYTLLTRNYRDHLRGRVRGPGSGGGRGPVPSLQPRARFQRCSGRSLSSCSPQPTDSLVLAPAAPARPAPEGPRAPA

hTRPC4 = target: T7, hTRPC4 (Homo sapiens, UniProt Q9UBN4); assay: Whole-cell manual patch clamp; assay type: cell-based; settings: 10 µM carbachol /M1R
T7 construct: The cDNAs for various full-length ion channels were subcloned into pcDNA5/TO; expressed in transfected cells; M1R co-expressed in the calcium assay, M2R in patch clamp

[4] = 1.0E-06 M, read-out: % Inhibition 1st
[5] = 1.0E-06 M, read-out: % Inhibition Mean
[6] = 1.0E-06 M, read-out: % Inhibition 2nd

T1 sequence (P25103 whole entry): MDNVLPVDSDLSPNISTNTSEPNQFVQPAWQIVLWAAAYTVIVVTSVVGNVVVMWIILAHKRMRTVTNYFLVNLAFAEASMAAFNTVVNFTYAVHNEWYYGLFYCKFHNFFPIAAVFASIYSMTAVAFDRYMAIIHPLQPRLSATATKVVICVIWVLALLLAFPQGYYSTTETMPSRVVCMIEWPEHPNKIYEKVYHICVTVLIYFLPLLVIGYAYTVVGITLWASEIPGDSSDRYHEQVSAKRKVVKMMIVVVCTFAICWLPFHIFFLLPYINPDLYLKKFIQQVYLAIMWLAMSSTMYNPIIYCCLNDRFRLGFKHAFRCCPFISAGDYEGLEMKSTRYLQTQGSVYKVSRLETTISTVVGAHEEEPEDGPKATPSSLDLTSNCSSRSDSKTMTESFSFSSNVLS
Chain of μ (MOP) (h) (P35372 whole entry): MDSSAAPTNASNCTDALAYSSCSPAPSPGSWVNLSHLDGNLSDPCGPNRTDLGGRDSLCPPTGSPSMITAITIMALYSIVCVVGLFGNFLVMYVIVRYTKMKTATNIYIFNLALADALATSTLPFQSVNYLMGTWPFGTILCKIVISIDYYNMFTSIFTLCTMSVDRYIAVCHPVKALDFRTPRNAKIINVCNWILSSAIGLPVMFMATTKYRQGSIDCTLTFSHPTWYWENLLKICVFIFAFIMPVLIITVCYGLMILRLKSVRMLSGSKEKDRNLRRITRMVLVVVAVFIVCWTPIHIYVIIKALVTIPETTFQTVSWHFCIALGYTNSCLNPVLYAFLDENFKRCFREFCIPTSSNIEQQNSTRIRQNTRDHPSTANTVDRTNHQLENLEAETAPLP
T5 sequence (P41968 whole entry): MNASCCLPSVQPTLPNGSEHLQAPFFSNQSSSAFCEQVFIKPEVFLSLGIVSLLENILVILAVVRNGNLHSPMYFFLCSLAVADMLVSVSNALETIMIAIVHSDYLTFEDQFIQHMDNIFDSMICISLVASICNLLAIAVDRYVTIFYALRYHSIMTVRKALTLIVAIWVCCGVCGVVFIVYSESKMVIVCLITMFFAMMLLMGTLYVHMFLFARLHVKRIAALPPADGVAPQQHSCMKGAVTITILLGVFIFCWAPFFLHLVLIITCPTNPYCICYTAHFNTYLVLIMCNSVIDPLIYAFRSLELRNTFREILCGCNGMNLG
T4 sequence (Q15722 whole entry): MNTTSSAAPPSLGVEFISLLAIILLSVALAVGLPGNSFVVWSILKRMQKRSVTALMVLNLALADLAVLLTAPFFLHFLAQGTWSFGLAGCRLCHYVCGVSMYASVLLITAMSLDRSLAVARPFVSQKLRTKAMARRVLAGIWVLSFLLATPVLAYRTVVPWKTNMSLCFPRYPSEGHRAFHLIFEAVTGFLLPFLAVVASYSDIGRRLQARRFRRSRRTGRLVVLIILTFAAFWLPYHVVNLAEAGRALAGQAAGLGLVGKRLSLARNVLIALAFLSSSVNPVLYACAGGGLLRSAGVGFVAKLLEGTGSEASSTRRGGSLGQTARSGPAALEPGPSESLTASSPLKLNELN
Chain of 5-HT7 (h) (P34969 whole entry): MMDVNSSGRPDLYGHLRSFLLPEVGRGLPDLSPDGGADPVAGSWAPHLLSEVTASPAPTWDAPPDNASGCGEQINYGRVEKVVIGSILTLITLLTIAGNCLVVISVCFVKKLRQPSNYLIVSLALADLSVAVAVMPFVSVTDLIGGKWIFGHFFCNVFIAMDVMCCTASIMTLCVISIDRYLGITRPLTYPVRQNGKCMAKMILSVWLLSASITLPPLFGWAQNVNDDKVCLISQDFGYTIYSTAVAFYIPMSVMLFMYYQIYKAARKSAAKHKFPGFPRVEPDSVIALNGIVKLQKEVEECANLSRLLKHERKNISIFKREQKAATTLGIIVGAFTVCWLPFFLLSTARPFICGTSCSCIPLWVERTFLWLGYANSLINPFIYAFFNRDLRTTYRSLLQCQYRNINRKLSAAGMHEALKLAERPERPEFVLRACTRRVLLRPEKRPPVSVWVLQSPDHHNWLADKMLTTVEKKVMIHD
Chain of β2 (h) (P07550 whole entry): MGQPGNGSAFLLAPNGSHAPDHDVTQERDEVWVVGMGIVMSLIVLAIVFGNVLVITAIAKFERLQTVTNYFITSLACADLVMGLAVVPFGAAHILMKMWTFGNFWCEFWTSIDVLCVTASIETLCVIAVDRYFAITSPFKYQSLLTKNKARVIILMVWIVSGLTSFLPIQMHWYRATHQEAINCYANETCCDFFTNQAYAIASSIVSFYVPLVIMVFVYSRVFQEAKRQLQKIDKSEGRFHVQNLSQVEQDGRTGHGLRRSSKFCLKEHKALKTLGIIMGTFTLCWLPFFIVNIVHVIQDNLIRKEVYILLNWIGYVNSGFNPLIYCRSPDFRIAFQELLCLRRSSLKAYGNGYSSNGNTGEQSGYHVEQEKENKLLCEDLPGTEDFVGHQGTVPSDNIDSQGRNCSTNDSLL
T7 sequence (Q9UBN4 1-893 isoform Q9UBN4-2): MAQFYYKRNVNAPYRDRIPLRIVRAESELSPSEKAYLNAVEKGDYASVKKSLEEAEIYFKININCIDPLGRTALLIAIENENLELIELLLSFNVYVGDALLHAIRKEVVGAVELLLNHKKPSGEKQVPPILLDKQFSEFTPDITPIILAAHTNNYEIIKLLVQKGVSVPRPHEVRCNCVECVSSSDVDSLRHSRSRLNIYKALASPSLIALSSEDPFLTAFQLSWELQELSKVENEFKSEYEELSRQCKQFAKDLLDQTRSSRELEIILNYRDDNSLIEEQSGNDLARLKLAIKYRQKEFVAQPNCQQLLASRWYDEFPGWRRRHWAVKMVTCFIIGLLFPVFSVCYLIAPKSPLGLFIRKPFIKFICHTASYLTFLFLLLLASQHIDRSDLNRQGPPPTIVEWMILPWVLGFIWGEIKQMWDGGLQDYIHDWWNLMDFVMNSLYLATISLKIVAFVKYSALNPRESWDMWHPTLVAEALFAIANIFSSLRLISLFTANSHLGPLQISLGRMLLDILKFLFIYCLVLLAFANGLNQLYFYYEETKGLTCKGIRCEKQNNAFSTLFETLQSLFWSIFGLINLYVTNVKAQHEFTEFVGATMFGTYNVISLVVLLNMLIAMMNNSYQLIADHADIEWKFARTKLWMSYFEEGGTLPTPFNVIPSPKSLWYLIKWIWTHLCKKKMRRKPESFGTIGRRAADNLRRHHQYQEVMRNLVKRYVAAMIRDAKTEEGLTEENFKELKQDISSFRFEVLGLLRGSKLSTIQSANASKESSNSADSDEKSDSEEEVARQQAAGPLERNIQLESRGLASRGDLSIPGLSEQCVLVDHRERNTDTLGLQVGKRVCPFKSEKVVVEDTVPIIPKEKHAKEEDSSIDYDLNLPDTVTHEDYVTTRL

For `Cn1c(=O)n(CCCO)c(=O)c2c1nc(Oc1cccc(Cl)c1)n2Cc1ccc(Cl)cc1` [HC-070], the “inhibition in most cases” value (range of ion channels) was at most 50%, the concentration at 60 min [1] was 782 ± 250 nM and the “number of open arm entries compared to vehicle” value (C57/BL6 mice) was “increased open arm entries; also recorded: significantly increased”. For the same compound, the “CS fear memory in CSD mice” value (C57BL/6 (CSD) mice) was “tended to reduce”, the “context fear memory in CSD mice” value (C57BL/6 (CSD) mice) was “significantly reduced” and the “freezing in inter-trial intervals between CS presentations, CSD mice” value (C57BL/6 (CSD) mice) was “ameliorated to the level of control mice; also recorded: reduced fear memory in CSD mice”. The immobility time (CD-1 mice; 0.3, 1 or 3 mg/kg PO, 60 min prior, CD-1 mice) was “reduced the immobility time; also recorded: significantly decreased”, the IC50 (CD-1 mice; Mus musculus, read-out: IC50 of immobility versus average plasma exposure (PK-PD)) was 58 nM and the “calculated free brain concentration corresponding to PK-PD IC50” value (CD-1 mice; male, CD-1 and C57BL/6, mouse, in vivo) was 0.16 nM.

`Cn1c(=O)n(CCCO)c(=O)c2c1nc(Oc1cccc(OC(F)(F)F)c1)n2Cc1ccc(Cl)cc1` [HC-608] gave an inhibition at 1 µM (μ (MOP) (h); read-out: % Inhibition 1st) of 0.1%, an inhibition at 1 µM (μ (MOP) (h); read-out: % Inhibition 2nd) of -6.8% and an inhibition at 1 µM (μ (MOP) (h); read-out: % Inhibition Mean) of -3.3%. For the same compound, the inhibition at 1 µM (NK1 (h); read-out: % Inhibition 1st) was -2.6%, the inhibition at 1 µM (NK1 (h); read-out: % Inhibition 2nd) was -13% and the inhibition at 1 µM (NK1 (h); read-out: % Inhibition Mean) was -7.8%. For the same compound, the inhibition at 1 µM ([2]; read-out: % Inhibition 1st) was -5.8%, the inhibition at 1 µM ([2]; read-out: % Inhibition 2nd) was -1.9% and the inhibition at 1 µM ([2]; read-out: % Inhibition Mean) was -3.9%. The inhibition at 1 µM (β2 (h); read-out: % Inhibition 1st) was -1.9%, the inhibition at 1 µM (β2 (h); read-out: % Inhibition 2nd) was 0.5% and the inhibition at 1 µM (β2 (h); read-out: % Inhibition Mean) was -0.7%. It also gave an inhibition at 1 µM (A1 (h); [4]) of 22.5%, an inhibition at 1 µM (A1 (h); [5]) of 17.4% and an inhibition at 1 µM (A1 (h); read-out: % Inhibition 2nd) of 12.3%. For the same compound, the inhibition at 1 µM (BLT1 (LTB4) (h); read-out: % Inhibition 1st) was -2.9%, the inhibition at 1 µM (BLT1 (LTB4) (h); read-out: % Inhibition 2nd) was 13.4% and the inhibition at 1 µM (BLT1 (LTB4) (h); read-out: % Inhibition Mean) was 5.3%. For the same compound, the inhibition at 1 µM ([3]; read-out: % Inhibition 1st) was -0.9%, the inhibition at 1 µM ([3]; read-out: % Inhibition 2nd) was 0.2% and the inhibition at 1 µM ([3]; read-out: % Inhibition Mean) was -0.4%. For the same compound, the inhibition at 1 µM (5-HT7 (h); read-out: % Inhibition 1st) was 12.1%, the inhibition at 1 µM (5-HT7 (h); read-out: % Inhibition 2nd) was 10.9% and the inhibition at 1 µM (5-HT7 (h); read-out: % Inhibition Mean) was 11.5%. For the same compound, the inhibition at 1 µM (MC3 (h); [4]) was 14.4%, the inhibition at 1 µM (MC3 (h); [6]) was 15.3% and the inhibition at 1 µM (MC3 (h); read-out: % Inhibition Mean) was 14.8%. For the same compound, the “% Inhibition 1st” value (TR (TH)) was 3.2%, the “% Inhibition 2nd” value (TR (TH)) was -1.6% and the “% Inhibition Mean” value (TR (TH)) was 0.8%. For the same compound, the “% Inhibition 1st” value (TNF-α (h)) was 8.8%, the “% Inhibition 2nd” value (TNF-α (h)) was -8.6% and the “% Inhibition Mean” value (TNF-α (h)) was 0.1%. It also gave an inhibition at 1 µM (UT (h); [6]) of 7%, an inhibition at 1 µM (UT (h); [5]) of 9.3% and an inhibition at 1 µM (UT (h); read-out: % Inhibition 1st) of 11.5%. The IC50 (hTRPC4) was about 0.17 nM.

Reference: paper PMC5791972 (PLoS ONE, 2018)
